Laboratory results from PubChem BioAssay (NCI).
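Five compound concentrations were applied to cells in 96-well plates for 48 hours; endpoints were derived by simple linear interpolation of the resulting dose-response curve. Here, GI50 denotes the concentration required for 50% inhibition of growth. TGI marks complete inhibition of growth.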

Columns and labels:
Test in all cases: NCI anticancer screen, dose series, 48 h
NCI-H226 lung = system: NCI-H226 lung
SF-268 CNS = system: SF-268 CNS
RPMI-8226 leukemia = system: RPMI-8226 leukemia
MALME-3M melanoma = system: MALME-3M melanoma
OVCAR-8 ovarian = system: OVCAR-8 ovarian
CAKI-1 renal = system: CAKI-1 renal
HCT-15 colon = system: HCT-15 colon
SN12C renal = system: SN12C renal
K-562 leukemia = system: K-562 leukemia

Structure (SMILES)	TGI (NCI-H226 lung) [µM]	TGI (SF-268 CNS) [µM]	TGI (RPMI-8226 leukemia) [µM]	TGI (MALME-3M melanoma) [µM]	TGI (OVCAR-8 ovarian) [µM]	TGI (CAKI-1 renal) [µM]	TGI (HCT-15 colon) [µM]	TGI (SN12C renal) [µM]	TGI (K-562 leukemia) [µM]	GI50 (SF-268 CNS) [nM]	GI50 (K-562 leukemia) [nM]
N[C@H](Cc1ccc2oc3cc(=O)c4ccccc4c-3nc2c1)C(=O)O	> 100	> 100	83.8	38.5	> 100	> 100	> 100	> 100	71.2		
COc1cc2c(cc1O)NC(=O)[C@@H]1CCCN1C2=O	> 100	> 100	> 100	> 100	> 100	> 100	> 100	> 100	> 100		
OC(C/C=N/N=C/CC(O)(C(F)(F)Cl)C(F)(F)Cl)(C(F)(F)Cl)C(F)(F)Cl	> 10	> 10	> 10	> 10	> 10	> 10	> 10	> 10	> 10		
C=C1CC[C@H]2C(=O)OC(c3ccoc3)C[C@]2(C)C/C=C\C=C/1C(=O)OC (stereo not given in full)	> 25			> 25	> 25	> 25	> 25	> 25	> 25		
O=P1(Cc2ccccc2)N(Cc2ccccc2)[C@@H]2CCCC[C@H]2N1Cc1ccccc1	4.63	24.3		32.4	23.8	23.7	23.8	23.2	19.2		
c1ccc2c3[nH]c(c2c1)=Nc1ccc(cc1)-c1nc2ccc(cc2o1)N=c1[nH]c(c2ccccc12)=Nc1ccc2nc(oc2c1)-c1ccc(cc1)N=3	> 100	> 100	86.2		> 100	> 100	25.3	> 100	51.5		
Cn1nnnc1SC(F)(F)c1nc2ccccc2o1	> 100	> 100	> 100	> 100	> 100	> 100	> 100	> 100	> 100		
CCOC(=O)C(NC(=O)c1ccccc1)(N1CCN(c2cc3c(cc2F)c(=O)c(C(=O)O)cn3C2CC2)CC1)C(F)(F)F (stereo not given)	45.2	41.8	54.1	39.3	> 100	50.2		79.3	46.6		
O=C(CBr)c1ccc2cc(Br)c3ccccc3c2c1	33.6	47	> 100	34.4	55.8	38	> 100		77.6		
C=CC1(CC[C@]2(c3ccc(OC)c(OC)c3)C=[N+]([O-])O[C@H](O[C@@H]3CCCC[C@H]3C(C)(C)c3ccccc3)C2)OCC(C)(C)CO1	38	52.1	26.5	24.8	40.6	> 28	> 48.5	22.8	> 56.9		
CCOC(=O)c1ccc(-c2ccc(Cl)cc2)[nH]1	> 10	> 10		> 10	> 10		> 10	> 10	> 10		
COCCn1cnc2c(Cl)nc(Nc3ccccc3)nc21	> 100	> 100	> 100		54.9		69.1	95.4	> 100		
COc1cccc(CC(=O)N2CCN(CCCc3ccccc3)CC2)c1	> 100	> 100	> 100		> 100	> 100	> 100	> 100	> 100		
C=C1CCCCCCCCC/C=C/1SCCCSC	> 100	> 100	> 100	> 100	> 100	> 100	> 100	> 100	> 100		
O=C1C(Br)=CC2(C=C1Br)CCNC1=C2C(=O)c2ncccc2C1=O	3.54	4.99	2.46	2.4	4.5	3.14	2.64	2.5	0.516		
O=C1CC(=O)NC(=NN2C(=O)/C(=C/c3ccc(Cl)c(Cl)c3)N=C2c2ccccc2)N1	> 100	> 100	47	> 100	94.9	> 100	> 100	34.8	32.5		
CC(=O)c1c(N=[N+]=[N-])c2cccc3c2n(c1=O)CCC3	50.4	38.6	66.9	27.6	16.1	57.8	47.4	44.5	> 100		
COC(=O)N[C@H](C(=O)NC(OCc1ccccc1)C1COC(C)(C)O1)C(C)O[Si](C)(C)C(C)(C)C (stereo not given in full)		> 100	> 100	> 100	> 100	> 100	> 100		> 100		
CCCCCCc1cc2cc(C(=O)Nc3ccc(F)cc3)c(=N)oc2cc1O		5.61	4.96	> 100	3.75	13.6	7.62		12.3		
NC1(CCNC(=O)c2ccccc2)CCN(C(=O)c2ccccc2)CC1	> 100	> 100	> 100	> 100	> 100	> 100	> 100	> 100	> 100		
Cc1n[n+](Cc2ccccc2)c2sc(N)nn12	> 100	> 100	> 100	> 100	> 100	> 100	> 100	> 100	> 100		
CC(=O)NC1C(Sc2ncn(C3OC(CO)C(O)C(O)C3NC(C)=O)n2)OC(CO)C(O)C1O (stereo not given)		> 100	> 100	> 100	> 100	> 100	> 100	> 100			
COc1ccc(CNc2nc(NC3CCCCC3)nc(NC3CCCCC3)n2)cc1	15.5	> 100		64.2	> 100	> 100	5.5	> 100	> 100		
CN1CCc2c(sc3[nH]c(=S)[nH]c(=S)c23)C1	> 100	> 100	> 100	> 100	> 100	> 100	> 100	> 100	> 100		
CCCC(=O)[O-].CCCC(=O)[O-].NCCN.NCCN.[Co+3].[O-][Cl+3]([O-])([O-])[O-]		> 100	> 100	> 100	> 100		> 100	> 100	> 100		

Structure (SMILES)	TGI (NCI-H226 lung) [µM]	TGI (SF-268 CNS) [µM]	TGI (RPMI-8226 leukemia) [µM]	TGI (MALME-3M melanoma) [µM]	TGI (OVCAR-8 ovarian) [µM]	TGI (CAKI-1 renal) [µM]	TGI (HCT-15 colon) [µM]	TGI (SN12C renal) [µM]	TGI (K-562 leukemia) [µM]	GI50 (SF-268 CNS) [nM]	GI50 (K-562 leukemia) [nM]
O=Cc1ccc(-c2ccc(-c3ccc(CO)s3)o2)s1	0.291	> 76.1		> 66.8	49		> 100	> 88.8	> 22.2		
CCCCC1Cc2cc(O)ccc2-c2nc3cc(O)ccc3n21 (stereo not given) (tested in a mixture with another compound)	46.3	33.3	31.5	57.8	68.8	89	25	36	41.3		
O=c1cc(NNc2cccc(Cl)c2)[nH]c(=O)[nH]1	> 100	> 100	56.1	30.6		36.9	31.4		> 100		
COc1cccc(-c2nc(-c3cnccn3)n(C/C=C/c3ccccc3)n2)c1	> 10	> 10		> 10	> 10		> 10	> 10	> 10		
CC(=O)OCC1OC(n2c(C)c(N=Nc3ccc(Cl)cc3)c(C)c(C#N)c2=S)C(OC(C)=O)C(OC(C)=O)C1OC(C)=O (stereo not given)		> 100	> 100	> 100		> 100	> 100	> 100	> 100		
N/C(=N\S(=O)(=O)c1ccc(-c2ncccc2C(F)(F)F)s1)Nc1ccc(Cl)cc1	41.4	31.5	> 100	30.1	29.7		32.2	38.3	63.8		
CCC(=O)OCN(C)c1nc(N(C)COC(=O)CC)nc(N(C)COC(=O)CC)n1	> 100		76	> 100	> 100	> 100	56	> 100	> 100		
C/C=C\C(CC(=O)NCC(=O)c1c[nH]c2ccccc12)CC(=O)OC (stereo not given)		> 100	> 100	> 100	> 100	> 100	> 100		> 100		
CN1CCCOC(c2ccc(Cl)cc2)O1 (stereo not given)	> 100	> 100		> 100	> 100	> 100	> 100	> 100	> 100		
CCOC(=O)CCC1(CCC(=O)OCC)CCCCCCCCC(CCC(=O)OCC)(CCC(=O)OCC)C(=O)C1=O	> 100	> 100		> 100	> 100	> 100	> 100	> 100	> 100		
O=C1/C(=C\c2cccc(Oc3ccccc3)c2)S(=O)(=O)C(c2ccccc2)N1c1cccc(Cl)c1 (stereo not given)		> 100	78.8	> 100	69.4	> 100	> 100	> 100	> 100		
COc1ccc(/C(Cl)=C(\C#N)c2ccc(OC)c(OC)c2)cc1OC	> 100		60.4			> 100	> 100	> 100	> 100		
CC1(C)OP(=O)(O)C=C1Sc1ccc([N+](=O)[O-])cc1[N+](=O)[O-]	> 100	> 100		> 100	> 100	> 100	> 100	> 100	> 100		
Cc1ccc2c(c1)CC1(Cc3cccc(C)c3C1=O)C2=O (stereo not given)	> 100	> 100	> 100	> 100	> 100		> 100	> 100	> 100		
O=C(NCCN1CCOCC1)c1ccc(I)cc1	> 100	> 100	> 100		> 100	> 100	> 100	> 100	> 100		
CCOP(=O)(OCC)/C(C#N)=C/c1ccc(-c2cc(C(F)(F)F)cc(C(F)(F)F)c2)o1	32.6	33.3	23.5		32		20.7	29.1	13.8		
COC(=O)[C@@H](NC(=O)N(Cc1ccccc1)C[C@H](CC(C)C)NC(=O)[C@@H](NC(=O)OC(C)(C)C)C(C)C)C(C)C	> 100	> 100	> 100	> 100	> 100	> 100	> 100		> 100		
COc1ccc(C2(CC(C)C)CCN(S(=O)(=O)c3ccc(C)cc3)C2)cc1OC (stereo not given)	> 100	95.4				> 100	> 100	> 100	76.5		
Cc1cc(C)nc(NC(P(=O)(O)O)P(=O)(O)O)n1	> 100	> 100		> 100	> 100	> 100	> 100				
CN1CCN(/C(N)=C(\C#N)C(=O)Nc2ccc(Cl)cc2)CC1	> 100		> 100		> 100	> 100	> 100	> 100	> 100		
O=c1cc(CF)[nH]c(=S)[nH]1	> 100	> 100		> 100	> 100	> 100	> 100	> 100	> 100		
CC1(C)O[C@H]2OC(CO)C(N=[N+]=[N-])[C@H]2O1 (stereo not given in full)		> 100	> 100	> 100	> 100	> 100	> 100	> 100			
C(=Nc1ccc2c(c1)Cc1ccccc1-2)c1ccccn1	> 100	> 100		> 100	> 100	> 100	> 100	90.3	> 100		
COc1ccc2c(c1)c(-c1nc(-c3c[nH]c4ncccc34)cs1)cn2CCCCN1CCCCC1		3.21							3.49	1590	1610
